Assays:
Format in all cases: biochemical
FAAH [1] = target: T1, FAAH (Mus musculus, UniProt O08914); experiment: In vitro competitive ABPP, % inhibition at fixed concentration, FAAH; set-up: from tissue
T1 sequence (O08914 1-579): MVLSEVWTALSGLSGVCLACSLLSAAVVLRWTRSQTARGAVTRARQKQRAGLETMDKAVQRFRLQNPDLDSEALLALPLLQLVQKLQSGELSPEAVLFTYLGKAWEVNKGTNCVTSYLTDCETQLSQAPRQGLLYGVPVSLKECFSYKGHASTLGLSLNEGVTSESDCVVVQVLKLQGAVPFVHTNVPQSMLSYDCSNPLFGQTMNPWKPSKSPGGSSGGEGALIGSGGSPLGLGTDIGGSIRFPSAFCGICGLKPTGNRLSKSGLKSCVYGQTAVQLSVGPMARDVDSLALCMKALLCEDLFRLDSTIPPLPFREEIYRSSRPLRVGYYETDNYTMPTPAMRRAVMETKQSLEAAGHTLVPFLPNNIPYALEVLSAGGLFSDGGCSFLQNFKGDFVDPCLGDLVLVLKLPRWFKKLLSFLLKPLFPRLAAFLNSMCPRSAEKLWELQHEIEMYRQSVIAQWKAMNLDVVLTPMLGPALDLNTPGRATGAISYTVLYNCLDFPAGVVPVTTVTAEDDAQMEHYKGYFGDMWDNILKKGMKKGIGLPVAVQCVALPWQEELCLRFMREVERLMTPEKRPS
Method: (§1) In Vitro Competitive Activity-Based Protein Profiling.
(§2) Proteomes (mouse brain membrane fraction or cell lysates) (50 μL, 1.0 mg/ml total protein concentration) were preincubated with varying concentrations of inhibitors at 37° C. After 30 min, FP-Rh (1.0 μL, 50 μM in DMSO) was added and the mixture was incubated for another 30 min at 37° C. Reactions were quenched with SDS loading buffer (50 μL—4×) and run on SDS-PAGE. Following gel imaging, serine hydrolase activity was determined by measuring fluorescent intensity of gel bands corresponding to MAGL, ABHD6 and FAAH using ImageJ 1.43u software.

MAGL [2] = target: T2, MAGL (Mus musculus, UniProt O35678); experiment: In vitro competitive ABPP, % inhibition at fixed concentration, MAGL; set-up: from tissue
T2 sequence (O35678 1-303): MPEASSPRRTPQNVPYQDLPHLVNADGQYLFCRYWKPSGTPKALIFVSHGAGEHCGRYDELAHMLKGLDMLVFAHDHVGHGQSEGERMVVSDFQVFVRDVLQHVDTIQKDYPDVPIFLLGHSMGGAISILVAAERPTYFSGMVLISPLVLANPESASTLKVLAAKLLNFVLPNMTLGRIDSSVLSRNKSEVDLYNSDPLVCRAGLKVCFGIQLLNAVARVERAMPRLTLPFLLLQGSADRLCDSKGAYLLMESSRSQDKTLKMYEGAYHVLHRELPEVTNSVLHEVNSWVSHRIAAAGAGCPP
Method: as §1, §2

ABHD6 [3] = target: T3, ABHD6 (Mus musculus, UniProt Q8R2Y0); experiment: In vitro competitive ABPP, % inhibition at fixed concentration, ABHD6; set-up: from tissue
T3 sequence (Q8R2Y0 1-336): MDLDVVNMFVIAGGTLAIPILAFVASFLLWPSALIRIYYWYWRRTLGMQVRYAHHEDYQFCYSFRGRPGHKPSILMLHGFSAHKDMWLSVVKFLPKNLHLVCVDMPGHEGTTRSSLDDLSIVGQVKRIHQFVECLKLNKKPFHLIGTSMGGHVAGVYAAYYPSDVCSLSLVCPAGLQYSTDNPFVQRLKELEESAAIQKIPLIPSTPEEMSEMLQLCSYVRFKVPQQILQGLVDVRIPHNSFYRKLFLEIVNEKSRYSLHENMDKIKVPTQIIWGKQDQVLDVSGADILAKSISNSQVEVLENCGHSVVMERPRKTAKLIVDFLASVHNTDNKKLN
Method: as §1, §2

MAGL [4] = target: T2, MAGL; experiment: In vitro competitive activity-based protein profiling (FP-Rh), mouse MAGL; set-up: from tissue; host or cells: mouse brain membrane fraction; conditions: Table 2, mouse proteome, 30 min preincubation at 37° C.
Method: as §1
(§3) Proteomes (mouse brain membrane fraction or cell lysates) (50 μL, 1.0 mg/ml total protein concentration) were preincubated with varying concentrations of inhibitors at 37° C. After 30 min, FP-Rh (1.0 μL, 50 μM in DMSO) was added and the mixture was incubated for another 30 min at 37° C. Reactions were quenched with SDS loading buffer (50 μL—4×) and run on SDS-PAGE.

FAAH [5] = target: T1, FAAH; experiment: In vitro competitive activity-based protein profiling (FP-Rh), mouse FAAH; set-up: from tissue; host or cells: mouse brain membrane fraction; conditions: Table 2, mouse proteome, 30 min preincubation at 37° C.
Method: as §1, §3

ABHD6 [6] = target: T3, ABHD6; experiment: In vitro competitive activity-based protein profiling (FP-Rh), mouse ABHD6; set-up: from tissue; host or cells: mouse brain membrane fraction; conditions: Table 2, mouse proteome, 30 min preincubation at 37° C.
Method: as §1, §3

| inhibition at 1 µM (FAAH [1]) | inhibition at 1 µM (MAGL [2]) | inhibition at 1 µM (ABHD6 [3]) | SMILES | also measured |
| --- | --- | --- | --- | --- |
| – | – | – | CC(=O)N1CCN(C(=O)ON2C(=O)CCC2=O)CC1 [Example 51, 2,5-Dioxopyrrolidin-1-yl 4-acetylpiperazine-1-carboxylate] | inhibition at 10 µM (FAAH [1]): < 25%; inhibition at 10 µM (MAGL [2]): < 25%; inhibition at 10 µM (ABHD6 [3]): < 25% |
| < 25% | 25 to 75% | 25 to 75% | O=C(ON1C(=O)CCC1=O)N1CCN(Cc2ccc(N3CCOCC3)cc2C(F)(F)F)CC1 [Example 76, 2,5-Dioxopyrrolidin-1-yl 4-{[4-(morpholin-4-yl)-2-(trifluoromethyl)phenyl]methyl}piperazine-1-carboxylate] | – |
| < 25% | 25 to 75% | 25 to 75% | C[C@H]1CN(Cc2ccc(N3CCOCC3)cc2C(F)(F)F)CCN1C(=O)ON1C(=O)CCC1=O [Example 77, 2,5-Dioxopyrrolidin-1-yl (2S)-2-methyl-4-{[4-(morpholin-4-yl)-2-(trifluoromethyl)phenyl]methyl}piperazine-1-carboxylate] | – |
| < 25% | < 25% | < 25% | C[C@@H]1CN(Cc2ccc(N3CCOCC3)cc2F)CCN1C(=O)ON1C(=O)CCC1=O [Example 79, 2,5-Dioxopyrrolidin-1-yl (2R)-4-{[2-fluoro-4-(morpholin-4-yl)phenyl]methyl}-2-methylpiperazine-1-carboxylate] | – |
| < 25% | < 25% | < 25% | C[C@@H]1CN(Cc2ccc(N3CCOCC3)cc2C(F)(F)F)CCN1C(=O)ON1C(=O)CCC1=O [Example 80, 2,5-Dioxopyrrolidin-1-yl (2R)-2-methyl-4-{[4-(morpholin-4-yl)-2-(trifluoromethyl)phenyl]methyl}piperazine-1-carboxylate] | – |
| < 25% | < 25% | 25 to 75% | O=C(ON1C(=O)CCC1=O)N1CCN(Cc2c(Cl)cccc2N2CCOCC2)CC1 [Example 81, 2,5-Dioxopyrrolidin-1-yl 4-{[2-chloro-6-(morpholin-4-yl)phenyl]methyl}piperazine-1-carboxylate] | – |
| < 25% | < 25% | < 25% | CC1(C)CN(Cc2ccc(N3CCOCC3)cc2C(F)(F)F)CCN1C(=O)ON1C(=O)CCC1=O [Example 86, 2,5-Dioxopyrrolidin-1-yl 2,2-dimethyl-4-{[4-(morpholin-4-yl)-2-(trifluoromethyl)phenyl]methyl}piperazine-1-carboxylate] | – |
| < 25% | < 25% | < 25% | CC1(C)CN(Cc2ccc(N3CCOCC3)cc2OC(F)(F)F)CCN1C(=O)ON1C(=O)CCC1=O [Example 87, 2,5-Dioxopyrrolidin-1-yl 2,2-dimethyl-4-{[4-(morpholin-4-yl)-2-(trifluoromethoxy)phenyl]methyl}piperazine-1-carboxylate] | – |
| < 25% | 25 to 75% | 25 to 75% | C[C@H]1CN(Cc2ccc(N3CCOCC3)cc2F)CCN1C(=O)ON1C(=O)CCC1=O [Example 88, 2,5-Dioxopyrrolidin-1-yl (2S)-4-{[2-fluoro-4-(morpholin-4-yl)phenyl]methyl}-2-methylpiperazine-1-carboxylate] | – |
| < 25% | 25 to 75% | 25 to 75% | C[C@H]1CN(Cc2ccc(N3CCOCC3)cc2Cl)CCN1C(=O)ON1C(=O)CCC1=O [Example 89, 2,5-Dioxopyrrolidin-1-yl (2S)-4-{[2-chloro-4-(morpholin-4-yl)phenyl]methyl}-2-methylpiperazine-1-carboxylate] | – |
| < 25% | 25 to 75% | 25 to 75% | C[C@H]1CN(Cc2ccc(N3CCOCC3)cc2OC(F)(F)F)CCN1C(=O)ON1C(=O)CCC1=O [Example 90, 2,5-Dioxopyrrolidin-1-yl (2S)-2-methyl-4-{[4-(morpholin-4-yl)-2-(trifluoromethoxy)phenyl]methyl}piperazine-1-carboxylate] | – |
| < 25% | < 25% | < 25% | C[C@@H]1CN(Cc2ccc(N3CCOCC3)cc2Cl)CCN1C(=O)ON1C(=O)CCC1=O [Example 96, 2,5-Dioxopyrrolidin-1-yl (2R)-4-{[2-chloro-4-(morpholin-4-yl)phenyl]methyl}-2-methylpiperazine-1-carboxylate] | – |
| < 25% | 25 to 75% | 25 to 75% | O=C(ON1C(=O)CCC1=O)N1CCN(Cc2ccc(N3CCCC3)cc2)CC1 [Example 99, 2,5-Dioxopyrrolidin-1-yl 4-(4-(pyrrolidin-1-yl)benzyl)piperazine-1-carboxylate] | – |
| < 25% | < 25% | < 25% | O=C(ON1C(=O)CCC1=O)N1CCN(Cc2ccc(N3CCOCC3)cc2)CC1 [Example 100, 2,5-Dioxopyrrolidin-1-yl 4-(4-morpholinobenzyl)piperazine-1-carboxylate] | – |
| < 25% | > 75% | 25 to 75% | O=C(ON1C(=O)CCC1=O)N1CCN(Cc2ccc(N3CCOCC3)cc2OC(F)(F)F)CC1 [Example 102, 2,5-Dioxopyrrolidin-1-yl 4-{[4-(morpholin-4-yl)-2-(trifluoromethoxy)phenyl]methyl}piperazine-1-carboxylate] | – |
| < 25% | < 25% | < 25% | C[C@@H]1CN(Cc2ccc(N3CCOCC3)cc2OC(F)(F)F)CCN1C(=O)ON1C(=O)CCC1=O [Example 103, 2,5-Dioxopyrrolidin-1-yl (2R)-2-methyl-4-{[4-(morpholin-4-yl)-2-(trifluoromethoxy)phenyl]methyl}piperazine-1-carboxylate] | – |
| < 25% | 25 to 75% | 25 to 75% | CS(=O)(=O)N1CCN(c2cc(Cl)ccc2CN2CCN(C(=O)ON3C(=O)CCC3=O)CC2)CC1 [Example 110, 2,5-Dioxopyrrolidin-1-yl 4-{[4-chloro-2-(4-methanesulfonylpiperazin-1-yl)phenyl]methyl}piperazine-1-carboxylate] | – |
| < 25% | 25 to 75% | 25 to 75% | O=C(ON1C(=O)CCC1=O)N1CCN(Cc2ccc(Cl)cc2N2CCC3(CCNC3=O)CC2)CC1 [Example 111, 2,5-Dioxopyrrolidin-1-yl 4-[(4-chloro-2-{1-oxo-2,8-diazaspiro[4.51]decan-8-yl}phenyl)methyl]piperazine-1-carboxylate] | – |
| < 25% | > 75% | 25 to 75% | O=C(ON1C(=O)CCC1=O)N1CCN(Cc2ccc(Cl)cc2N2CCC2)CC1 [Example 112, 2,5-Dioxopyrrolidin-1-yl 4-{[2-(azetidin-1-yl)-4-chlorophenyl]methyl}piperazine-1-carboxylate] | – |
| – | – | – | O=C(ON1C(=O)CCC1=O)N1CCN(Cc2ccc(-c3ccccc3)cc2C(=O)N2CCCC2)CC1 [Example 191, 2,5-Dioxopyrrolidin-1-yl 4-{[4-phenyl-2-(pyrrolidine-1-carbonyl)phenyl]methyl}piperazine-1-carboxylate] | IC50 (MAGL [4]): 100 to 1000 nM; IC50 (FAAH [5]): > 10000 nM; IC50 (ABHD6 [6]): 1000 to 10000 nM |

Reference: US9567302B2, “Carbamate compounds and of making and using same” (Abide Therapeutics, Inc., priority 2012, dated 2017)
